Laboratory results reported in patent US7517874B2 (priority 2007, dated 2009).
Read-outs that look alike come from different tables or passages of the source.

Columns and labels:
rat CB2 receptor (rCB2) = biological target: T1, rat CB2 receptor (rCB2) (Rattus norvegicus, UniProt Q9QZN9); assay: cell-based; assay type: cell-based; conditions: for +/− RCB2: agonist or inverse agonist at rCB2
T1 sequence (Q9QZN9 1-360): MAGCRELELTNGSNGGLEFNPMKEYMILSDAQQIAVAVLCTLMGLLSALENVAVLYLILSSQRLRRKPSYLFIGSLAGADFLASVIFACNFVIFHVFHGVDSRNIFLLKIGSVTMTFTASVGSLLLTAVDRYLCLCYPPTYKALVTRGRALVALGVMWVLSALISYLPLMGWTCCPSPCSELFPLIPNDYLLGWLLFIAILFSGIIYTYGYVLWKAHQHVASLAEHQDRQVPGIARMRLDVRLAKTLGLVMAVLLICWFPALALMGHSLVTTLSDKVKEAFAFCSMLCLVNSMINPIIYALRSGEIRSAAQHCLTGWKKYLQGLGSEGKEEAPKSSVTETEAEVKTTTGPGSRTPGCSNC
Outline: (§1)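 First, cells in IBMX-containing HEPES-buffered HBSS are raised to elevated cAMP with 2-8 μM NKH-477 for 30 min. Data are normalised to the forskolin and forskolin + 1 μM CP55,940 controls.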

[1] = biological target: human CB1 receptor (hCB1) (Homo sapiens, UniProt P21554); assay: cell-based; assay type: cell-based; conditions: for +/− HCB1: agonist or inverse agonist at hCB1
Chain of human CB1 receptor (hCB1) (P21554 whole entry): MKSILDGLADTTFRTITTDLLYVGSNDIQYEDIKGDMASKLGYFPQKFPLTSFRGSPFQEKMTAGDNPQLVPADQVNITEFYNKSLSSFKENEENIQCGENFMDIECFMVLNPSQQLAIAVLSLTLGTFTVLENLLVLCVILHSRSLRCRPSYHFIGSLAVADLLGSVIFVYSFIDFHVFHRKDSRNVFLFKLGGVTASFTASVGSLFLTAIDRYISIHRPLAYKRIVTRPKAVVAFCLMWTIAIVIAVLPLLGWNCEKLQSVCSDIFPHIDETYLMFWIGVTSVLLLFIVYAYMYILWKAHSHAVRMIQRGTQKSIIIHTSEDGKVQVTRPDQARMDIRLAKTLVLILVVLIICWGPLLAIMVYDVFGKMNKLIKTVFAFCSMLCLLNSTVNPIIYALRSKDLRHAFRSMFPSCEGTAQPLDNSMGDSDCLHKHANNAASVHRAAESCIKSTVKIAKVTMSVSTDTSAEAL
Outline: as §1

[2] = groups >100 nM-10 μM and >10 μM, cAMP, CHO-K1 hCB1, read-out: EC50 HCB1

Row | Compound | +/− RCB2 (rat CB2 receptor (rCB2)) | EC50 [1] [nM] | EC50 (rat CB2 receptor (rCB2)) [µM] | +/− HCB1 [1] | EC50 [1, 2] [nM]
1 | CNC(=O)[C@@H](NC(=O)c1nc(C(C)C)n2c1CN(C)CCC2)C(C)(C)C [Compound 496, (S)-N-(3,3-dimethyl-1-(methylamino)-1-oxobutan-2-yl)-3-isopropyl-8-methyl-6,7,8,9-tetrahydro-5H-imidazo[1,5-a][1,4]diazepine-1-carboxamide] | + | > 10000 |  |  | 
2 | CNC(=O)[C@@H](NC(=O)c1nc(-c2ccccc2)n2c1CN(C(=O)c1ccccc1)CCC2)C(C)(C)C [Compound 462, (S)-8-benzoyl-N-(3,3-dimethyl-1-(methylamino)-1-oxobutan-2-yl)-3-phenyl-6,7,8,9-tetrahydro-5H-imidazo[1,5-a][1,4]diazepine-1-carboxamide] |  | > 10000 | > 10 |  | 
3 | CC(C)CN1CCn2c(-c3ccccc3)nc(C(=O)N[C@@H](C)c3ccccc3)c2C1 [Compound 145, (S)-7-isobutyl-3-phenyl-N-(1-phenylethyl)-5,6,7,8-tetrahydroimidazo[1,5-a]pyrazine-1-carboxamide] | − | > 10000 |  |  | 
4 | CN1CCn2c(-c3ccccc3)nc(C(=O)N[C@@H](CO)C(C)(C)C)c2C1 [Compound 67, (R)-N-(1-hydroxy-3,3-dimethylbutan-2-yl)-7-methyl-3-phenyl-5,6,7,8-tetrahydroimidazo[1,5-a]pyrazine-1-carboxamide] |  | > 10000 | > 10 |  | 
5 | CNC(=O)[C@@H](NC(=O)c1nc(-c2cccc(C(=O)N(C)C)c2)n2c1CN(C)CCC2)C(C)(C)C [Compound 412, (S)-N-(3,3-dimethyl-1-(methylamino)-1-oxobutan-2-yl)-3-(3-(dimethylcarbamoyl)phenyl)-8-methyl-6,7,8,9-tetrahydro-5H-imidazo[1,5-a][1,4]diazepine-1-carboxamide] |  | > 10000 | > 10 |  | 
6 | CNC(=O)[C@@H](NC(=O)c1nc(-c2cc(Cl)ccc2F)n2c1CN(C)CC2)C(C)(C)C [Compound 246, (S)-3-(5-chloro-2-fluorophenyl)-N-(3,3-dimethyl-1-(methylamino)-1-oxobutan-2-yl)-7-methyl-5,6,7,8-tetrahydroimidazo[1,5-a]pyrazine-1-carboxamide] | − | > 10000 |  |  | 
7 | CNC(=O)[C@@H](NC(=O)c1nc(-c2cc(F)c(F)cc2F)n2c1CN(C)CCC2)C(C)(C)C [Compound 371, (S)-N-(3,3-dimethyl-1-(methylamino)-1-oxobutan-2-yl)-8-methyl-3-(2,4,5-trifluorophenyl)-6,7,8,9-tetrahydro-5H-imidazo[1,5-a][1,4]diazepine-1-carboxamide] | + |  |  | + | 
8 | CN1CCn2c(-c3ccccc3)nc(C(=O)NCC(C)(C)C)c2C1 [Compound 57, 7-methyl-N-neopentyl-3-phenyl-5,6,7,8-tetrahydroimidazo[1,5-a]pyrazine-1-carboxamide] |  | > 10000 | > 10 |  | 
9 | CCC/C=C/c1nc(C(=O)N[C@H](C(=O)NC)C(C)(C)C)c2n1CCCN(C)C2 [Compound 434, (S,E)-N-(3,3-dimethyl-1-(methylamino)-1-oxobutan-2-yl)-8-methyl-3-(pent-1-enyl)-6,7,8,9-tetrahydro-5H-imidazo[1,5-a][1,4]diazepine-1-carboxamide] | + | > 10000 |  |  | 
10 | CCS(=O)(=O)N1CCn2c(-c3ccccc3)nc(C(=O)Nc3ccccc3)c2C1 [Compound 114, 7-(ethylsulfonyl)-N,3-diphenyl-5,6,7,8-tetrahydroimidazo[1,5-a]pyrazine-1-carboxamide] | − |  |  |  | > 10000
11 | CNC(=O)[C@@H](NC(=O)c1nc(-c2ccccc2)n2c1C[N+](C)(C)CCC2)C(C)(C)C [Compound 481, (S)-1-(3,3-dimethyl-1-(methylamino)-1-oxobutan-2-ylcarbamoyl)-8,8-dimethyl-3-phenyl-6,7,8,9-tetrahydro-5H-imidazo[1,5-a][1,4]diazepin-8-ium] |  | > 10000 | > 10 |  | 
12 | CC(C)=CC(=O)c1nc(-c2ccccc2)n2c1CN(C)CC2 [Compound 293, 3-methyl-1-(7-methyl-3-phenyl-5,6,7,8-tetrahydroimidazo[1,5-a]pyrazin-1-yl)but-2-en-1-one] | − |  |  |  | > 10000
13 | COC(=O)N1CCn2c(-c3ccccc3)nc(C(=O)NC3C4(C)CCC(C4)C3(C)C)c2C1 (stereo not drawn) [Compound 178, methyl 3-phenyl-1-(1,3,3-trimethylbicyclo[2.2.1]heptan-2-ylcarbamoyl)-5,6-dihydroimidazo[1,5-a]pyrazine-7(8H)-carboxylate] | − | > 10000 |  |  | 
14 | CC(C)C[C@H](NC(=O)c1nc(-c2ccc(Cl)cc2F)n2c1CN(C)CCC2)C(N)=O [Compound 564, (S)-N-(1-amino-4-methyl-1-oxopentan-2-yl)-3-(4-chloro-2-fluorophenyl)-8-methyl-6,7,8,9-tetrahydro-5H-imidazo[1,5-a][1,4]diazepine-1-carboxamide] | + |  |  | + | 
15 | CN1CCCn2c(-c3ccccc3)nc(C(=O)N[C@H](C(=O)NCCF)C(C)(C)C)c2C1 [Compound 476, (S)-N-(1-(2-fluoroethylamino)-3,3-dimethyl-1-oxobutan-2-yl)-8-methyl-3-phenyl-6,7,8,9-tetrahydro-5H-imidazo[1,5-a][1,4]diazepine-1-carboxamide] | + | > 10000 |  |  | 
16 | CNC(=O)[C@@H](NC(=O)c1nc(-c2ccc(S(=O)(=O)N(C)C)cc2)n2c1CN(C)CCC2)C(C)(C)C [Compound 410, (S)-N-(3,3-dimethyl-1-(methylamino)-1-oxobutan-2-yl)-3-(4-(N,N-dimethylsulfamoyl)phenyl)-8-methyl-6,7,8,9-tetrahydro-5H-imidazo[1,5-a][1,4]diazepine-1-carboxamide] |  | > 10000 | > 10 |  | 
17 | CNC(=O)[C@@H](NC(=O)c1nc(-c2cccc(F)c2F)n2c1CN(C)CC2)C(C)(C)C [Compound 261, (S)-3-(2,3-difluorophenyl)-N-(3,3-dimethyl-1-(methylamino)-1-oxobutan-2-yl)-7-methyl-5,6,7,8-tetrahydroimidazo[1,5-a]pyrazine-1-carboxamide] | + | > 10000 |  |  | 
18 | CNC(=O)[C@@H](NC(=O)c1nc(-c2cccnc2)n2c1CN(C)CC2)C(C)(C)C [Compound 252, (S)-N-(3,3-dimethyl-1-(methylamino)-1-oxobutan-2-yl)-7-methyl-3-(pyridin-3-yl)-5,6,7,8-tetrahydroimidazo[1,5-a]pyrazine-1-carboxamide] | + | > 10000 |  |  | 
19 | CCS(=O)(=O)N1CCn2c(-c3ccccc3)nc(C(=O)NN3CCCCC3)c2C1 [Compound 115, 7-(ethylsulfonyl)-3-phenyl-N-(piperidin-1-yl)-5,6,7,8-tetrahydroimidazo[1,5-a]pyrazine-1-carboxamide] | − |  |  |  | > 10000
20 | CNC(=O)[C@@H](NC(=O)c1nc(-c2ccc(C#N)cc2)n2c1CN(C)CCC2)C(C)(C)C [Compound 342] |  | > 10000 | > 10 |  | 
21 | CNC(=O)[C@@H](NC(=O)c1nc(-c2ccccc2)n2c1CN(c1ncccn1)CC2)C(C)(C)C [Compound 298, N-(3,3-dimethyl-1-(methylamino)-1-oxobutan-2-yl)-3-phenyl-7-(pyrimidin-2-yl)-5,6,7,8-tetrahydroimidazo[1,5-a]pyrazine-1-carboxamide] | + |  |  | + | 
